Data published in PMC12935919 (Frontiers in Pharmacology, 2026).
No end group written: not given here.

Assays:
[1] = test system: C2C12 cells; test: Indirect immunofluorescence (MyoD, MYH3) and fusion index; type: cell-based
Method: Differentiated C2C12 cells cultured on coverslips were fixed at room temperature for 10 min with PBS containing 3.7% paraformaldehyde. Next, the samples were permeabilized with 0.25% Triton X-100/PBS for 10 min, blocked with 1% BSA/PBS, and incubated overnight with primary antibodies, anti-MyoD (Santa Cruz, sc-377460) and anti-MYH3 (Santa Cruz, sc-53091), followed by washing with PBS. The samples were then incubated for 1 h Alexa Fluor 488–conjugated goat anti-mouse IgG H&L (abcam, ab150113). Nuclei were stained with 4′,6-diamidino-2-phenylindole (DAPI; blue) for 5 min. The coverslips were mounted onto glass slides using an aqueous mounting solution (Biomeda, Foster City, CA, USA) and left to dry. Images were captured using a confocal laser-scanning microscope (LEICA, Wetzlar, Germany) at ×200 and ×400 magnifications for MYH3 and MyoD, respectively. The fluorescence intensity of each marker was quantified using ImageJ. For fusion index analysis, MYH3-stained images were used to quantify myotube formation by counting the number of DAPI-positive nuclei located within MYH3-positive multinucleated myotubes (defined as MYH3-positive cells containing ≥2 nuclei) and the total number of nuclei per field. Fusion index (%) was calculated as (nuclei within MYH3-positive multinucleated myotubes/total nuclei) × 100. Fusion index was calculated from multiple randomly selected fields captured under identical imaging settings and quantified in ImageJ.

[2] = target: T1, human recombinant Myostatin-Fc protein (Mus musculus, UniProt O08689); test: Surface plasmon resonance (SPR) analysis, Biacore T200; type: binding; details: 3.125 μM to 200 μM, 25 °C, HBS-EP
T1 construct: purchased Sino Biological 50441-M01H
T1 sequence (O08689 268-376): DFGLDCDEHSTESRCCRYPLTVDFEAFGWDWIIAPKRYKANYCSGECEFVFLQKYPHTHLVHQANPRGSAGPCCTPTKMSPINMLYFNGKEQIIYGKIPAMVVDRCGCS
Method: The human recombinant Myostatin-Fc protein (Sino Biological, #50441-M01H) was immobilized on the surface of a CM5 sensor chip at 2210.3 response units (RUs) using an EDC/NHS amine coupling kit, following the manufacturer’s instructions. […] Data analysis was performed using Biacore T200 Evaluation Software version 3.1 (Cytiva).

[3] = test system: Fc gamma-tagged myostatin/GDF-8; test: ELISA-based receptor binding assay; design: species or system human
Method: Plates were washed with PBST and blocked with 3% (w/v) BSA for 2 h at room temperature. They were then incubated for 2 h with Fc gamma-tagged myostatin/GDF-8 (Sino Biological, #50441-M01H) diluted in PBST. After another PBST wash, plates were treated with HRP-linked Anti-IgG Fc gamma (CST, #32935S, 1:1,000) for 2 h. Finally, color was developed with TMB (Sigma, #T0440), the reaction stopped with 1 M H2SO4, and absorbance was measured at 450 nm.

[4] = test system: patients with muscle atrophy (ICD-10-CM code: M62.5); test: Clinical trial: serum biomarkers; type: in vivo, human
Method: The study was conducted at Biosite Research Private Limited (Shanthipura, India) under the New Drugs and Clinical Trials Rules (2019) issued by CDSCO (Ministry of Health and Family Welfare, Government of India), and in compliance with GCP, applicable local regulatory requirements, the Declaration of Helsinki ([…]), ICMR guidelines (2017), and ICH-GCP E6 (R2). Ethical approval was obtained from the Excel Hospital Institutional Ethics Committee (ECR/1670/Inst/TG/2022) and ethics committees of other participating centers, and the trial was prospectively registered (CTRI/2024/01/061919). All participants provided written informed consent prior to any study procedures. Key eligibility criteria included adults aged ≥18 years with low muscle mass by DEXA (men: <7.0 kg/m^2; women: <5.4 kg/m^2) and either low handgrip strength (men: <28 kg; women: <18 kg) or low physical performance (6-m walk speed <1.0 m/s). Major exclusion criteria included uncontrolled systemic disease, musculoskeletal or neurological disorders, recent anabolic steroid use, and concomitant medications known to affect protein metabolism; full inclusion and exclusion criteria are provided in Supplementary Table S1. Of 89 patients screened, seven were screen failures and two withdrew prior to randomization; 80 eligible participants were enrolled and proceeded to the baseline/randomization visit (mean age 38.83 ± 9.91 years; range 23-69). […] The study was double-blind; participants, investigators, and study staff were unaware of treatment allocation throughout the trial. […] Efficacy endpoints were evaluated as changes from baseline to Week 12; efficacy analyses were conducted in the per-protocol population, and safety analyses included all randomized participants who received at least one dose of study product (Supplementary Figure S2). Of 80 randomized participants, 75 completed the study. Statistical analyses were performed using SAS (version 9.4; SAS Institute Inc., Cary, NC, USA). Continuous variables were summarized as N, mean (SD), median, minimum, and maximum, and categorical variables as n (%), with percentages calculated as n/N × 100. Changes from baseline to Week 12 in DEXA-assessed muscle mass, 6-m walk test, and handgrip strength were analyzed using ANCOVA, adjusting for the corresponding baseline value. Least-squares means (LSMs), 95% confidence intervals, and two-sided p-values were reported, with p < 0.05 considered statistically significant.

[5] = test system: patients with muscle atrophy (ICD-10-CM code: M62.5); test: Clinical trial: safety, treatment emergent adverse events; type: in vivo, human; details: 12 weeks, 200 mg/day, N=40
From the text: All participants provided written informed consent prior to any study procedures. Key eligibility criteria included adults aged ≥18 years with low muscle mass by DEXA (men: <7.0 kg/m^2; women: <5.4 kg/m^2) and either low handgrip strength (men: <28 kg; women: <18 kg) or low physical performance (6-m walk speed <1.0 m/s). Major exclusion criteria included uncontrolled systemic disease, musculoskeletal or neurological disorders, recent anabolic steroid use, and concomitant medications known to affect protein metabolism; full inclusion and exclusion criteria are provided in Supplementary Table S1. Of 89 patients screened, seven were screen failures and two withdrew prior to randomization; 80 eligible participants were enrolled and proceeded to the baseline/randomization visit (mean age 38.83 ± 9.91 years; range 23–69).

[6] = Day 3, 100 μM, fluorescence intensity, mean ± SD

EAEYEHL-OH [Myoki]
increase in MYH3 expression compared to the control [1, 6]: 191% ± 10.66%
increase in MyoD expression compared to the control [1, 6]: 190% ± 46.28%
increase in MYH3 fluorescence staining compared to the control ([1]; Day 6): 153%
SPR binding to myostatin ([2]; seven concentrations, CM5 chip, 2210.3 RU immobilized, 30 μL/min, steady-state affinity fit, Kd not given): binds to Myostatin
association and dissociation ([2]; SPR): relatively rapid association and dissociation
response units (RUs) ([2]; SPR): increased dose-dependently
binding to myostatin ([3]; Myoki coated at 125, 250, 500, and 1,000 μM): directly and concentration-dependently binds to myostatin
myostatin binding compared to the control ([3]; Myoki-coated plates, ≥62.5 μM, absorbance 450 nm): more than 150%
IGF-1, change from baseline to Week 12 (LS mean) ([4]; 200 mg peptide/day oral, N = 38, 95% CI (19.49 to 43.40), placebo 13.51): 31.44 ng/mL
TNF-alpha, change from baseline to Week 12 (LS mean) ([4]; 200 mg peptide/day oral, N = 38, 95% CI (−1.54 to 9.48), placebo 4.3): 3.97 pg/mL
Creatine kinase (CK-MB), change from baseline to Week 12 (LS mean) ([4]; 200 mg peptide/day oral, N = 38, 95% CI (−2.13 to 1.04), placebo 3.41): -0.54 ng/mL
IL-6, change from baseline to Week 12 (LS mean) ([4]; 200 mg peptide/day oral, N = 38, 95% CI (−2.59 to 2.67), placebo 1.31): 0.04 pg/mL
Aspartate aminotransferase, change from baseline to Week 12 (LS mean) ([4]; 200 mg peptide/day oral, N = 38, 95% CI (−6.14 to 0.49), placebo 2.57): −2.83 IU/L
Sex hormones (Estrogen), change from baseline to Week 12 (LS mean) ([4]; 200 mg peptide/day oral, N = 38, 95% CI (−8.11 to 3.36), placebo −1.98): -2.37 pg/mL
Myoglobin, change from baseline to Week 12 (LS mean) ([4]; 200 mg peptide/day oral, N = 38, 95% CI (−10.33 to −2.56), placebo 8.15): -6.45 ng/mL
Sex hormones (testosterone), change from baseline to Week 12 (LS mean) ([4]; 200 mg peptide/day oral, N = 38, 95% CI (−21.09 to 114.17), placebo −29.9): 46.54 pg/mL
Aspartate aminotransferase, difference between placebo and treatment (95% CI) ([4]; Week 12, 200 mg/day, p 0.025): −5.39 IU/L
IGF-1, difference between placebo and treatment (95% CI) ([4]; Week 12, 200 mg/day, p 0.038): 17.93 ng/mL
Creatine kinase (CK-MB), difference between placebo and treatment (95% CI) ([4]; Week 12, 200 mg/day, p <0.01): -3.95 ng/mL
Myoglobin, difference between placebo and treatment (95% CI) ([4]; Week 12, 200 mg/day, p <0.01): -14.6 ng/mL
TEAEs related to the study product [5]: No TEAEs were assessed as related to the study product
serious TEAEs [5]: no serious TEAEs were reported
severity and outcome of TEAEs [5]: all TEAEs were mild in severity and resolved
